Reference: patent publication US12667572B2, “Tricyclic compounds useful in the treatment of cancer, autoimmune and inflammatory disorders” (SCHRÖDINGER, INC., priority 2021, dated 2026)

Target: T1, full-length MALT1 protein His-MALT1(1-824) (Homo sapiens, UniProt Q9UDY8)
T1 construct: full-length MALT1 protein His-MALT1(1-824); His (N); made in house; host or cells: baculovirus-infected insect cells
T1 sequence (Q9UDY8 1-824): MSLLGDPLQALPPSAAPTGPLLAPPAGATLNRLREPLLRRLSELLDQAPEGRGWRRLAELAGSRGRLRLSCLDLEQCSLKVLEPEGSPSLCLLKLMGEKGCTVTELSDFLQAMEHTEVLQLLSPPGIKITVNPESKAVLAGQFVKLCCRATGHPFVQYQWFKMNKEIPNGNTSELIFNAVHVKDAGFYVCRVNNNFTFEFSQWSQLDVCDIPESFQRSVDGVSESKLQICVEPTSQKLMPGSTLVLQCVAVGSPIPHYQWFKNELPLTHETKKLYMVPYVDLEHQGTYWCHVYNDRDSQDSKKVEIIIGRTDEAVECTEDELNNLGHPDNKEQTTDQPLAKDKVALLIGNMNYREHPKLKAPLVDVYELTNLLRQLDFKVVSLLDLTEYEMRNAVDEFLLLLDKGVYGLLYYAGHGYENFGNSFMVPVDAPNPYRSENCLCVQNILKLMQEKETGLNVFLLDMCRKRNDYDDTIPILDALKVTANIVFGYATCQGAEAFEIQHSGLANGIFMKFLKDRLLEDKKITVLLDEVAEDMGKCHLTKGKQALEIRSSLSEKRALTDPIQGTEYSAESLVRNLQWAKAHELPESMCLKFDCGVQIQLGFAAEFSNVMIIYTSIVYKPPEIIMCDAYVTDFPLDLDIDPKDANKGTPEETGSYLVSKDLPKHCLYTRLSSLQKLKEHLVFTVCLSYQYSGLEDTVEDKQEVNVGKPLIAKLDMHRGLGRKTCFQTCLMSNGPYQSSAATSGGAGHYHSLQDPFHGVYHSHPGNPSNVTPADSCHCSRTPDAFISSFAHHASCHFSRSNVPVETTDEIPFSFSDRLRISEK
Assay: MALT1 protease assay, Assay 2 (1 nM MALT1, Ac-LRSR-AMC substrate)
Type: biochemical
Settings: 1 nM MALT1, 50 μM Ac-LRSR-AMC, 2 h pre-incubation, 8 hr incubation at RT
Protocol: MALT1 protease activity was assessed in an in vitro assay using a tetrapeptide as substrate and full-length MALT1 protein His-MALT1(1-824) purified from baculovirus-infected insect cells. The tetrapeptide substrate is Ac-LRSR-AMC (SM Biochemicals) with Km measured at around 100 μM.
The final assay buffer includes 1 nM (Assay 2) or 2 nM (Assay 1) of MALT1 full-length protein, 50 μM Ac-LRSR-AMC substrate, 50 mM Tris pH 7.5, 600 mM Sodium Citrate, 1 mM DTT, 1 mM EDTA, and 0.05% BSA in 384-well plate format using black microtiter square well plates (Optiplate 384-F, Perkin Elmer).
Test compounds were dissolved in 100% DMSO at stock of 10 mM, with final DMSO concentration 0.1%. Test compounds were pre-incubated with MALT1 protein for 2 h at room temperature. Substrate was added after the pre-incubation and fluorescence signal was measured using Envision at excitation 355 nm and emission 460 nm after 8 hr incubation at RT. Increase in the assay signal was linear over this period and proportional with increase in the enzyme content.
The fluorescence units were transformed to percentage of remaining activity by using the high control (HC, median of fluorescence signal from wells containing MALT1 protein, substrate, and DMSO) and low control (LC, median of fluorescence signal from wells with substrate only) with the formula below: […]
IC50 and Hill coefficients were obtained using Graph Pad Prism (Graph Pad software, Inc, USA) with non-linear regression analysis.

`COc1cnc(C(F)(F)F)cc1NC(=O)C1CC(C)(C)c2c1cnc1cc(F)nn21` (single isomer, unassigned) [Example 92, 2-fluoro-N-(5-methoxy-2-(trifluoromethyl)pyridin-4-yl)-8,8-dimethyl-7,8-dihydro-6H-cyclopenta[e]pyrazolo[1,5-a]pyrimidine-6-carboxamide] and `Cc1cc(NC(=O)[C@@H]2CC(C)(C)c3c2cnc2cc(F)nn32)cnc1-n1nccn1` (single isomer, unassigned) [Example 182] cannot be ordered by IC50: 100 to 1000 nM for the first, at least 1000 nM for the second.

`Cc1nnn(-c2ncc(NC(=O)C3CC(C)(C)c4c3cnc3cc(Cl)nn43)cc2Cl)n1` (single isomer, unassigned) [Example 141, 2-chloro-N-(5-chloro-6-(5-methyl-2H-tetrazol-2-yl)pyridin-3-yl)-8,8-dimethyl-7,8-dihydro-6H-cyclopenta[e]pyrazolo[1,5-a]pyrimidine-6-carboxamide] and `Cn1nnc(-c2ncc(NC(=O)C3CC(C)(C)c4c3cnc3cc(Cl)nn43)cc2Cl)n1` (single isomer, unassigned) [Example 143, 2-chloro-N-(5-chloro-6-(2-methyl-2H-tetrazol-5-yl)pyridin-3-yl)-8,8-dimethyl-7,8-dihydro-6H-cyclopenta[e]pyrazolo[1,5-a]pyrimidine-6-carboxamide] cannot be ordered by IC50: at least 1000 nM for the first, 100 to 1000 nM for the second.

First: O=C(Nc1cnc(-n2nccn2)c(Cl)c1)[C@@H]1CC2(CC2)c2c1cnc1cc(F)nn21 (single isomer, unassigned) [Example 94, N-(5-chloro-6-(2H-1,2,3-triazol-2-yl)pyridin-3-yl)-2-fluoro-6,7-dihydrospiro[cyclopenta[e]pyrazolo[1,5-a]pyrimidine-8,1′-cyclopropane]-6-carboxamide]
Second: CC1(C)OC(C(=O)Nc2cnc(-n3nccn3)c(Cl)c2)c2cnc3cc(Cl)nn3c21 (single isomer, unassigned) [Example 70, 2-chloro-N-(5-chloro-6-(2H-1,2,3-triazol-2-yl)pyridin-3-yl)-8,8-dimethyl-6,8-dihydrofuro[3,4-e]pyrazolo[1,5-a]pyrimidine-6-carboxamide]
The IC50 of the first is lower: 10 to 100 nM for the first, at least 1000 nM for the second.

Compared with `CC1(C)CC(C)(C(=O)Nc2cnc(-n3nccn3)c(Cl)c2)c2cnc3cc(Cl)nn3c21` (single isomer, unassigned) [Example 139, 2-chloro-N-(5-chloro-6-(2H-1,2,3-triazol-2-yl)pyridin-3-yl)-6,8,8-trimethyl-7,8-dihydro-6H-cyclopenta[e]pyrazolo[1,5-a]pyrimidine-6-carboxamide], `CC1(C)CC(C(=O)Nc2cnc(-n3nccn3)c(C#N)c2)c2cnc3cc(C(F)F)nn3c21` (single isomer, unassigned) [Example 130, N-(5-cyano-6-(2H-1,2,3-triazol-2-yl)pyridin-3-yl)-2-(difluoromethyl)-8,8-dimethyl-7,8-dihydro-6H-cyclopenta[e]pyrazolo[1,5-a]pyrimidine-6-carboxamide] is lower in IC50: at least 1000 nM for the first, 10 to 100 nM for the second.

First: CC1(C)CC(C(=O)Nc2cc(C(F)F)c(-c3cnco3)c(=O)[nH]2)c2cnc3cc(Cl)nn3c21 (centres unmarked) [Example 59, 2-chloro-N-(4-(difluoromethyl)-5˜(oxazol-5-yl)-6-oxo-1,6-dihydropyridin-2-yl)-8,8-dimethyl-7,8-dihydro-6H-cyclopenta[e]pyrazolo[1,5-a]pyrimidine-6-carboxamide]
Second: CC1(C)CC(C(=O)Nc2cnc(OC(F)F)c(Cl)c2)c2cnc3cc(Cl)nn3c21 (single isomer, unassigned) [Example 67, 2-chloro-N-(5-chloro-6-(difluoromethoxy)pyridin-3-yl)-8,8-dimethyl-7,8-dihydro-6H-cyclopenta[e]pyrazolo[1,5-a]pyrimidine-6-carboxamide]
The IC50 of the first is lower: 10 to 100 nM for the first, 100 to 1000 nM for the second. The first is the more potent here.

With `CC1(C)CC(C(=O)Nc2cnc(-c3nnn(C4COC4)n3)c(Cl)c2)c2cnc3cc(Cl)nn3c21` (centres unmarked) [Example 162, 2-chloro-N-(5-chloro-6-(2-(oxetan-3-yl)-2H-tetrazol-5-yl)pyridin-3-yl)-8,8-dimethyl-7,8-dihydro-6H-cyclopenta[e]pyrazolo[1,5-a]pyrimidine-6-carboxamide] the IC50 was 10 to 100 nM.
